From patent US8916558B2, “Powders for reconstitution” (Tibotec Pharmaceuticals Ltd., priority 2007, dated 2014)

Experiment: Solubility of TMC278 in water (statement)
Format: physicochemical
Conditions: free base; background statement

Cc1cc(C=CC#N)cc(C)c1Nc1ccnc(Nc2ccc(C#N)cc2)n1 [TMC278, 4-[[4-[[4-(2-cyano-ethenyl)-2,6-dimethylphenyl]-amino]-2-pyrimidinyl]-amino]-benzonitrile]
solubility in water: poorly soluble in water
